The values below come from patent publication US20120264685A1 (priority 2009, published 2012).

Where a SMILES comes first, the peptide text is derived from it. [ ]: non-standard residue; d: D form. ξ: configuration not given here. ξαMeBip(2'-Et,4'-OMe) = CCc1cc(OC)ccc1-c1ccc(CC(C)(N)C(=O)O)cc1; ξBip(2'-Et-4'-OMe) = CCc1cc(OC)ccc1-c1ccc(CC(N)C(=O)O)cc1; ξαMe(hhPhe) = CC(N)(CCCc1ccccc1)C(=O)O; ξαMePhe(2-F) = CC(N)(Cc1ccccc1F)C(=O)O; ξαMeD = CC(N)(CC(=O)O)C(=O)O; ξαMeP = CC1(C(=O)O)CCCN1; ξαMeS = CC(N)(CO)C(=O)O

Series [1] relates to RIN5F (Rat Insulinoma) cells. Description: In vitro glucose-dependent insulin secretion (RIN5F cell assay). The following applies: 16.7-mM glucose load, n = 3, mean ± S.D. Type of series: cell-based. A digest of the protocol: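 Rat RIN5F cells were preincubated 40 min in Krebs-Ringer buffer with 1.1 mM glucose and 0.5% BSA, pH 7.4, then exposed to test peptidomimetics for 30 min at 37 °C with 16.7 mM or 0 mM glucose. Supernatant insulin was measured by rat insulin ELISA and normalised to total protein (BCA), as pg/μg.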

The target in a further series is DPP IV enzyme (Homo sapiens, UniProt P27487). Kind of series: Stability against DPP IV enzyme. Type of series: in vitro ADME. The settings on record: 2 μM, 37° C.; for half-life: read-out: half-life (t1/2) with DPP-IV enzyme. The method, then:
(§1) Different peptidomimetics (final concentration 2 μM) were incubated with either DPP IV (1:25 mU) or pooled human plasma (7.5 μL) or simulated gastric fluid (pH 1.5; composition HCl, NaCl and Pepsin) or simulated intestinal fluid (pH 7.5) or human liver microsomes, for 0, 2, 4, 6, 12 and 24 h (37° C.; 50 mM triethanolamine-HCl buffer; pH 7.8). […] Reactions were terminated by the addition of TFA/H2O ([…], 10% (v/v)). The reaction products were then applied to a Vydac C18 analytical column (4.6×250-mm) and the major degradation fragment separated from intact peptidomimetic. The column was equilibrated with TFA/H20, at a flow rate of 1 mL/min. Using 0.1% (v/v) TFA in 70% acetonitrile/H2O, the concentration of acetonitrile in the eluting solvent was raised from 0% to 28% over 10 min and from 28% to 42% over 30 min. The absorbance was monitored at 206 nm using UV detector and peaks were collected manually prior to ESI-MS analysis. Area under the curve was measured for test peptidomimetics and their metabolites and percentage degradation were calculated at each time point over a period of 24 h.

Series [2] can be described thus: Stability in human plasma. Type of series: in vitro ADME. The following applies: 2 μM, 37° C.; for half-life: human, plasma, read-out: half-life (t1/2) in human plasma. On the procedure: as §1
Series [3] in a line: Stability in simulated gastric fluid. The class given is in vitro ADME. The settings on record: 2 μM, 37° C.; for % degradation in 24 h when incubated with simulated gastric fluid: pH 1.5, 24 h; for half-life: simulated gi fluid, pH 1.5, read-out: half-life (t1/2) in simulated gastric fluid. The method, then:
(§2) Reactions were terminated by the addition of TFA/H2O ([…], 10% (v/v)). […] The column was equilibrated with TFA/H20, at a flow rate of 1 mL/min. […] The absorbance was monitored at 206 nm using UV detector and peaks were collected manually prior to ESI-MS analysis.

Series [4] is described as follows: Stability in simulated intestinal fluid. The following applies: 2 μM, 37° C.; for % degradation in 24 h when incubated with simulated intestinal fluid: pH 7.5, 24 h; for half-life: simulated gi fluid, pH 7.5, read-out: half-life (t1/2) in simulated intestinal fluid. Type of series: in vitro ADME. The method, then:
as §2

Series [5] in a line: Stability in liver microsomes. The class given is in vitro ADME, human. The following applies: 2 μM, 37° C.; for half-life: human, microsomes, read-out: half-life (t1/2) in liver microsomes. The method, then:
as §2

Chain of DPP IV enzyme (P27487 whole entry, species assumed, the tested form may be a part): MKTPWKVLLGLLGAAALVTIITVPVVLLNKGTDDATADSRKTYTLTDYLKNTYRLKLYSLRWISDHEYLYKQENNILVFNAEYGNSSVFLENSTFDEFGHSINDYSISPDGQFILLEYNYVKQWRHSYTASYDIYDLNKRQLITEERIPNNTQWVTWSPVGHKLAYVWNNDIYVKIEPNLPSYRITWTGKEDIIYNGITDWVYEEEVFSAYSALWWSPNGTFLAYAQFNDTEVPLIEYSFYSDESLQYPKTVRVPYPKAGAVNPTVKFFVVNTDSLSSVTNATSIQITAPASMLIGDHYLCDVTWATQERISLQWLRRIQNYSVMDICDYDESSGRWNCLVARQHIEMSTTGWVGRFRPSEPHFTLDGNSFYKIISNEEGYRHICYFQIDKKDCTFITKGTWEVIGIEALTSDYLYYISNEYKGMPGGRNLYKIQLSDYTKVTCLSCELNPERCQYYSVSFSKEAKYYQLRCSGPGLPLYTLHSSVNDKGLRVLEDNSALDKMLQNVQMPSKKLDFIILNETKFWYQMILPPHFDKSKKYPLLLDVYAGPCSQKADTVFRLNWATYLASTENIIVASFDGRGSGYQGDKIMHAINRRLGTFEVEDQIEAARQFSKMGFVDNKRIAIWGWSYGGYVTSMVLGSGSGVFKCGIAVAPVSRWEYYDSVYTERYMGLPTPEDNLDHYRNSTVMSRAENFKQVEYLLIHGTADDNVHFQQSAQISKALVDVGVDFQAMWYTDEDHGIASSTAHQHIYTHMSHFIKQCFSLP

In the case of `CCc1cc(OC)ccc1-c1ccc(CC(NC(=O)[C@H](CC(=O)O)NC(=O)[C@H](CO)NC(=O)[C@@H](NC(=O)C(C)(Cc2ccccc2F)NC(=O)[C@@H](NC(=O)CNC(=O)[C@H](CCC(N)=O)NC(=O)[C@H](C)NC(=O)[C@H](Cc2c[nH]cn2)NC(=O)[C@@H](N)C(C)C)[C@@H](C)O)[C@@H](C)O)C(=O)NC(C)(CCCc2ccccc2)C(N)=O)cc1` (stereo partly drawn) [compound 92] (H-VHAQGT[ξαMePhe(2-F)]TSD[ξBip(2'-Et-4'-OMe)][ξαMe(hhPhe)]-NH2), the “Insulin secretion” value in series [1] (0.1 nM test compd.) came to 16.9 ± 0.22 pg/µg/h; in series [1] (1 nM test compd.) it was 22.8 ± 0.31 pg/µg/h; in series [1] (10 nM test compd.) it was 36.7 ± 0.34 pg/µg/h. The “% degradation in 24 h when incubated with DPP-IV enzyme” value (“% degradation … with DPP-IV enzyme” below) on DPP IV enzyme is on record as 00%. Moreover, the half-life at DPP IV enzyme is above 24 h; in series [2] it was above 24 h; in series [3], 4 h; in series [4], above 24 h; in series [5], 2 h. In addition, in series [2], the “% degradation in 24 h when incubated with human plasma” value (from here on “% degradation … with human plasma”) turned out to be 00%. The “% degradation in 24 h when incubated with simulated gastric fluid” value (from here on “% degradation … with simulated gastric fluid”) in series [3] is reported as 55%. In addition, in series [4], the “% degradation in 24 h when incubated with simulated intestinal fluid” value (“% degradation … with simulated intestinal fluid” for short) is 00%. The “% degradation in 24 h when incubated with liver microsomes” value (“% degradation … with liver microsomes” below) in series [5] amounted to 84%.
Turning to `CCc1cc(OC)ccc1-c1ccc(CC(NC(=O)C(C)(CC(=O)O)NC(=O)C(C)(CO)NC(=O)[C@@H](NC(=O)[C@H](Cc2ccccc2)NC(=O)[C@@H](NC(=O)CNC(=O)[C@H](CCC(N)=O)NC(=O)[C@H](C)NC(=O)[C@H](Cc2c[nH]cn2)NC(=O)[C@@H](N)C(C)C)[C@@H](C)O)[C@@H](C)O)C(=O)NC(C)(CCCc2ccccc2)C(N)=O)cc1` (stereo partly drawn) [compound 108] (H-VHAQGTFT[ξαMeS][ξαMeD][ξBip(2'-Et-4'-OMe)][ξαMe(hhPhe)]-NH2), in series [1] (0.1 nM test compd.), the “Insulin secretion” value came out at 11.9 ± 0.17 pg/µg/h. For the same compound, the “Insulin secretion” value in series [1] (1 nM test compd.) came out at 14.2 ± 0.13 pg/µg/h. For the same compound, the “Insulin secretion” value in series [1] (10 nM test compd.) stood at 27.6 ± 0.16 pg/µg/h. Moreover, at DPP IV enzyme, the “% degradation … with DPP-IV enzyme” value came to 00% and the half-life was above 24 h. In series [2], the “% degradation … with human plasma” value is 00% and the half-life is above 24 h. Further, in series [3], the “% degradation … with simulated gastric fluid” value was 00% and the half-life was above 24 h. In series [4], the “% degradation … with simulated intestinal fluid” value is on record as 00% and the half-life is above 24 h. In series [5], the “half-life (t1/2) in liver microsomes” value is given as “(5) h” and the “% degradation … with liver microsomes” value is 33%.
For `CCc1cc(OC)ccc1-c1ccc(CC(NC(=O)C(C)(CC(=O)O)NC(=O)C(C)(CO)NC(=O)[C@@H](NC(=O)[C@H](Cc2ccccc2)NC(=O)[C@@H](NC(=O)CNC(=O)[C@H](CCC(=O)O)NC(=O)[C@H](C)NC(=O)[C@H](Cc2c[nH]cn2)NC(=O)[C@@H](N)C(C)C)[C@@H](C)O)[C@@H](C)O)C(=O)NC(C)(CCCc2ccccc2)C(N)=O)cc1` (stereo partly drawn) [compound 112] (H-VHAEGTFT[ξαMeS][ξαMeD][ξBip(2'-Et-4'-OMe)][ξαMe(hhPhe)]-NH2), the “Insulin secretion” value in series [1] (0.1 nM test compd.) came to 12.3 ± 0.33 pg/µg/h. Moreover, the “Insulin secretion” value in series [1] (1 nM test compd.) came to 14.8 ± 0.16 pg/µg/h. Also, the “Insulin secretion” value in series [1] (10 nM test compd.) is 28.1 ± 0.22 pg/µg/h. Further, the “% degradation … with DPP-IV enzyme” value at DPP IV enzyme is listed as 70%. In addition, in series [2], the “half-life (t1/2) in human plasma” value is listed as “(9) h” and the “% degradation … with human plasma” value was found to be 71%. Besides, in series [3], the “% degradation … with simulated gastric fluid” value is recorded as 100% and the half-life was 0.5 h. In series [4], the “% degradation … with simulated intestinal fluid” value is 100% and the half-life was 0.5 h. For the same compound, in series [5], the “% degradation … with liver microsomes” value is 100% and the half-life stood at 0.5 h.
As for `CCc1cc(OC)ccc1-c1ccc(CC(C)(NC(=O)[C@H](CC(=O)O)NC(=O)[C@H](CO)NC(=O)[C@@H](NC(=O)[C@H](Cc2ccccc2)NC(=O)[C@@H](NC(=O)CNC(=O)[C@H](CCC(=O)O)NC(=O)C2(C)CCCN2C(=O)[C@H](Cc2c[nH]cn2)NC(=O)[C@@H](N)C(C)C)[C@@H](C)O)[C@@H](C)O)C(=O)NC(C)(CCCc2ccccc2)C(N)=O)cc1` (stereo partly drawn) [compound 140] (H-VH[ξαMeP]EGTFTSD[ξαMeBip(2'-Et,4'-OMe)][ξαMe(hhPhe)]-NH2), the figures for the “Insulin secretion” value in series [1] (0.1 nM test compd.), in series [1] (1 nM test compd.) and in series [1] (10 nM test compd.) were 16.6 ± 0.41 pg/µg/h, 22.9 ± 0.32 pg/µg/h and 36.7 ± 0.11 pg/µg/h, respectively. Besides, the “% degradation … with DPP-IV enzyme” value at DPP IV enzyme is given as 86%. The “half-life (t1/2) in human plasma” value in series [2] is reported as “(9) h”. For the same compound, in series [2], the “% degradation … with human plasma” value was 70%. Also, the “% degradation … with simulated gastric fluid” value in series [3] is listed as 100%. The half-life in series [3], in series [4] and in series [5] was 0.5 h in each case. The “% degradation … with simulated intestinal fluid” value in series [4] is 100%. Moreover, in series [5], the “% degradation … with liver microsomes” value came out at 100%.
On to `CCc1cc(OC)ccc1-c1ccc(CC(C)(NC(=O)[C@H](CC(=O)O)NC(=O)C(C)(CO)NC(=O)[C@@H](NC(=O)C(C)(Cc2ccccc2F)NC(=O)[C@@H](NC(=O)CNC(=O)[C@H](CCC(N)=O)NC(=O)[C@H](CO)NC(=O)[C@H](Cc2c[nH]cn2)NC(=O)[C@@H](N)C(C)C)[C@@H](C)O)[C@@H](C)O)C(=O)NC(C)(CCCc2ccccc2)C(N)=O)cc1` (stereo partly drawn) [compound 165] (H-VHSQGT[ξαMePhe(2-F)]T[ξαMeS]D[ξαMeBip(2'-Et,4'-OMe)][ξαMe(hhPhe)]-NH2), for which the “Insulin secretion” value in series [1] (0.1 nM test compd.) was 12.1 ± 0.42 pg/µg/h. In addition, the “Insulin secretion” value in series [1] (1 nM test compd.) came to 14.6 ± 0.41 pg/µg/h. For the same compound, the “Insulin secretion” value in series [1] (10 nM test compd.) was determined as 27.8 ± 0.46 pg/µg/h. Further, the “% degradation … with DPP-IV enzyme” value on DPP IV enzyme is recorded as 72%. Also, in series [2], the “half-life (t1/2) in human plasma” value is reported as “(9) h” and the “% degradation … with human plasma” value was determined as 70%. In series [3], the “% degradation … with simulated gastric fluid” value was 100% and the half-life is 0.5 h. Moreover, in series [4], the “% degradation … with simulated intestinal fluid” value was 100% and the half-life is 0.5 h. Besides, in series [5], the “% degradation … with liver microsomes” value was found to be 100% and the half-life is 0.5 h.
On to `CCc1cc(OC)ccc1-c1ccc(CC(C)(NC(=O)[C@H](CC(=O)O)NC(=O)C(C)(CO)NC(=O)[C@@H](NC(=O)C(C)(Cc2ccccc2F)NC(=O)[C@@H](NC(=O)CNC(=O)[C@H](CCC(=O)O)NC(=O)[C@H](C)NC(=O)[C@H](Cc2c[nH]cn2)NC(=O)[C@@H](N)C(C)C)[C@@H](C)O)[C@@H](C)O)C(=O)NC(C)(CCCc2ccccc2)C(N)=O)cc1` (stereo partly drawn) [compound 170] (H-VHAEGT[ξαMePhe(2-F)]T[ξαMeS]D[ξαMeBip(2'-Et,4'-OMe)][ξαMe(hhPhe)]-NH2), for which the “Insulin secretion” value in series [1] (0.1 nM test compd.) was 12.3 ± 0.33 pg/µg/h; in series [1] (1 nM test compd.) it was 14.8 ± 0.16 pg/µg/h; in series [1] (10 nM test compd.) it was 28.1 ± 0.22 pg/µg/h. On DPP IV enzyme, the “% degradation … with DPP-IV enzyme” value amounted to 00%. Also, the half-life at DPP IV enzyme is above 24 h; in series [2] it was above 24 h; in series [3], 4 h; in series [4] it was above 24 h; in series [5], 2 h. For the same compound, the “% degradation … with human plasma” value in series [2] is given as 00%. Moreover, the “% degradation … with simulated gastric fluid” value in series [3] is recorded as 52%. For the same compound, the “% degradation … with simulated intestinal fluid” value in series [4] is listed as 00%. In series [5], the “% degradation … with liver microsomes” value was 81%.
